# From patent US9232796B2, “Herbicidal compositions comprising 4-amino-3-chloro-5-fluoro-6-(4-chloro-2-fluoro-3-methoxyphenyl) pyridine-2-carboxylic acid or a derivative thereof and acetyl-CoA carboxylase (ACCase) inhibitors” (DOW AGROSCIENCES LLC, priority 2012, dated 2016)
# Experiments:
# LEFCH = test: Example I postemergence foliar-applied, greenhouse, direct seeded rice weeds; type: in vivo, Leptochloa chinensis (L.) Nees
# From the text: (§1) Seeds or nutlets of the desired test plant species were planted in a soil matrix prepared by mixing a loam or sandy loam soil (e.g., 28.6 percent silt, 18.8 percent clay, and 52.6 percent sand, with a pH of about 5.8 and an organic matter content of about 1.8 percent) and calcareous grit in an 80 to 20 ratio. The soil matrix was contained in plastic pots with a volume of 1 quart and a surface area of 83.6 square centimeters (cm^2). When required to ensure good germination and healthy plants, a fungicide treatment and/or other chemical or physical treatment was applied. The plants were grown for 8-22 days in a greenhouse with an approximate 14 hr. photoperiod which was maintained at about 29° C. during the day and 26° C. during the night. Nutrients (Peters Excel® 15-5-15 5-Ca 2-Mg and iron chelate) were applied in the irrigation solution as needed and water was added on a regular basis. Supplemental lighting was provided with overhead metal halide 1000-Watt lamps as necessary. The plants were employed for testing when they reached the first through fourth true leaf stage.
# (§2) Treatments consisted of the acid or esters of 4-amino-3-chloro-5-fluoro-6-(4-chloro-2-fluoro-3-methoxy-phenyl)pyridine-2-carboxylic acid (Compound A), each formulated as an SC (suspension concentrate), and various herbicidal components alone and in combination.
# (§3) Other herbicidal components were applied on an acid equivalent (ae) or active ingredient (ai) basis and included acetyl coA carboxylase (ACCase)-inhibiting herbicides (cyclohexanedione and aryloxyphenoxypropionate chemical classes) cyhalofop-butyl formulated as Clincher® SF (285 gr ai/L EC), diclofop-methyl formulated as Hoelon® 3EC, fenoxaprop-p-ethyl+isoxadifen-ethyl formulated as RiceStar® HT (0.58 lb./gal EC), fenoxaprop-p-ethyl+mefenpyr diethyl formulated as Puma® IEC, metamifop formulated as Metamifop EC, haloxyfop-methyl formulated as Gallant Super®, fluazifop-p-butyl formulated as Fusilade® DX, quizalofop-p-ethyl formulated as Assure® II, profoxydim formulated as Aura® 20EC, clethodim applied as Intensity®, sethoxydim formulated as Poast®, and tralkoxydim formulated as Achieve®.
# (§4) Treatment requirements were calculated based upon the rates being tested, the concentration of active ingredient or acid equivalent in the formulation, and a 12 mL application volume at a rate of 187 L/ha.
# (§5) For treatments comprised of formulated compounds, measured amounts of compounds were placed individually in 25 mL glass vials and diluted in a volume of 1.25% (v/v) Agri-Dex® crop oil concentrated to obtain 12× stock solutions. […] Application solutions were prepared by adding an appropriate amount of each stock solution (e.g., 1 mL) and diluted to the appropriate final concentrations with the addition of 10 mL of an aqueous mixture of 1.25% (v/v) crop oil concentrate so that the final spray solutions contained 1.25+/−0.05% (v/v) crop oil concentrate.
# (§6) All stock solutions and applications solutions were visually inspected for compound compatibility prior to application. Spray solutions were applied to the plant material with an overhead Mandel track sprayer equipped with a 8002E nozzles calibrated to deliver 187 L/ha over an application area of 0.503 m^2 at a spray height of 18 to 20 inches (46 to 50 cm) above average plant canopy height. Control plants were sprayed in the same manner with the solvent blank.
# (§7) The treated plants and control plants were placed in a greenhouse as described above and watered by sub-irrigation to prevent wash-off of the test compounds. After approximately 3 weeks, the condition of the test plants as compared with that of the untreated plants was determined visually and scored on a scale of 0 to 100 percent where 0 corresponds to no injury or growth inhibition and 100 corresponds to complete kill. […]
# CYPES = test: as above; type: in vivo, Cyperus esculentus L.
# From the text: as §1, §2, §3, §4, §5, §6, §7
# CYPIR = test: as above; type: in vivo, Cyperus iria L.
# Procedure, shortened: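 Postemergence greenhouse test: SC-formulated Compound A and ACCase-inhibitor partners were applied over-the-top in crop oil concentrate (1.25% v/v) at 187 L/ha. Visual ratings of injury on a 0–100% scale were taken after roughly 3 weeks.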
# ECHCO = test: Example V post-emergence field trials in direct-seeded rice; type: in vivo, Echinochloa colona; settings: foliar, field trial Tolima, Colombia
# Description: (§8) Multiple field trials were conducted under commercial grower field conditions in Tolima, Colombia; Thessaloniki, Greece; Bianze and Copiano, Italy; and Humphrey, Ark., USA. Trials sites were located in commercially grown fields of direct-seeded rice (Oryza sativa) using standard herbicide small plot research methodology. Plots varied from 2 to 3 meter (m)×5 to 8 m (width×length) with 4 replicates per treatment. The rice crop was grown using normal cultural practices for fertilization, seeding, watering, flooding and maintenance to ensure good growth of the crop and the weeds.
# (§9) All treatments in the field trials were applied using a backpack compressed air/gas sprayer with flat fan nozzles (80° or 110°) calibrated to apply 187 to 300 L/ha spray volume at approximately 200-400 kPa nozzle pressure. Commercially available products of cyhalofop-butyl (Clincher 180EC, Clincher 200EC, and Clincher SF (285 gr ai/L EC)) were mixed in water at appropriate formulated product rates to achieve the desired rates based on a unit area of application (hectare) to achieve the desired rates as shown. Treatments were rate at 19 to 58 days after application (DAA) as compared to the untreated control plants. Visual weed control was scored on a scale of 0 to 100 percent where 0 corresponds to no injury and 100 corresponds to complete kill. […]
# ECHSS = test: as above; type: in vivo, multiple Echinochloa species; settings: foliar, field trial Italy
# Description: as §8, §9
# SCPMU = test: as above; type: in vivo, Schoenoplectus mucronatus; settings: foliar, field trial Italy
# Description: as §8, §9
smiles,measurement,setting,value
"CCC/C(=N\OCC(C)Oc1ccc(Cl)cc1)C1=C(O)CC(C2CCCSC2)CC1=O (stereo not shown) [Profoxydim, 2-[1-[[2-(4-chlorophenoxy)propoxy]imino]butyl]-3-hydroxy-5-(tetrahydro-2H-thiopyran-3-yl)-2-cyclohexen-1-one, reference compound]",Visual Weed Control (%) - 20 DAA LEFCH Obs,LEFCH; 12.5 gai/ha,0%
same,Visual Weed Control (%) - 20 DAA LEFCH Obs,LEFCH; 25 gai/ha,40%
"COc1c(Cl)ccc(-c2nc(C(=O)OCc3ccccc3)c(Cl)c(N)c2F)c1F [Compound A Benzyl Ester, benzyl ester of 4-amino-3-chloro-5-fluoro-6-(4-chloro-2-fluoro-3-methoxy-phenyl)pyridine-2-carboxylic acid]",Visual Weed Control (%) - 20 DAA CYPES Obs,CYPES; 4.38 gae/ha,70%
same,Visual Weed Control (%) - 20 DAA CYPES Obs,CYPES; 8 gae/ha,0%
same,Visual Weed Control (%) - 20 DAA CYPES Obs,CYPES; 8.75 gae/ha,80%
same,Visual Weed Control (%) - 20 DAA CYPES Obs,CYPES; 16 gae/ha,75%
same,Visual Weed Control (%) - 20 DAA CYPES Obs,CYPES; 17.5 gae/ha,95%
same,Visual Weed Control (%) - 20 DAA CYPIR Obs,CYPIR; 4.38 gae/ha,15%
same,Visual Weed Control (%) - 22 DAA CYPIR Obs,CYPIR; 8 gae/ha,20%
same,Visual Weed Control (%) - 20 DAA CYPIR Obs,CYPIR; 8.75 gae/ha,35%
same,Visual Weed Control (%) - 22 DAA CYPIR Obs,CYPIR; 16 gae/ha,85%
same,Visual Weed Control (%) - 22 DAA CYPIR Obs,CYPIR; 32 gae/ha,100%
same,Visual Weed Control (%) - 20 DAA LEFCH Obs,LEFCH; 4.38 gae/ha,0%
same,Visual Weed Control (%) - 22 DAA LEFCH Obs,LEFCH; 8 gae/ha,15%
same,Visual Weed Control (%) - 20 DAA LEFCH Obs,LEFCH; 8.75 gae/ha,10%
same,Visual Weed Control (%) - 22 DAA LEFCH Obs,LEFCH; 16 gae/ha,50%
same,Visual Weed Control (%) - 20 DAA LEFCH Obs,LEFCH; 17.5 gae/ha,25%
same,Visual Weed Control (%) - 19 DAA ECHCO Obs,ECHCO; 12 gae/ha,76%
same,Visual Weed Control (%) - 55-58 DAA ECHSS Obs,ECHSS; 24 gae/ha,40%
same,Visual Weed Control (%) - 55-58 DAA SCPMU Obs,SCPMU; 24 gae/ha,27%
"COc1c(Cl)ccc(-c2nc(C(=O)O)c(Cl)c(N)c2F)c1F [Compound A Acid, 4-amino-3-chloro-6-(4-chloro-2-fluoro-3-methoxyphenyl)-5-fluoropyridine-2-carboxylic acid]",Visual Weed Control (%) - 20 DAA CYPES Obs,CYPES; 4.38 gae/ha,30%
same,Visual Weed Control (%) - 22 DAA CYPES Obs,CYPES; 4.38 gae/ha,50%
same,Visual Weed Control (%) - 20 DAA CYPES Obs,CYPES; 8.75 gae/ha,70%
same,Visual Weed Control (%) - 22 DAA CYPES Obs,CYPES; 8.75 gae/ha,75%
same,Visual Weed Control (%) - 22 DAA CYPIR Obs,CYPIR; 4.38 gae/ha,15%
"CCCCOC(=O)[C@@H](C)Oc1ccc(Oc2ccc(C#N)cc2F)cc1 [Cyhalofop-butyl, butyl(2R)-2-[4-(4-cyano-2-fluorophenoxy)phenoxy]propanoate, reference compound]",Visual Weed Control (%) - 19 DAA ECHCO Obs,ECHCO; 280 gai/ha,0%
same,Visual Weed Control (%) - 55-58 DAA ECHSS Obs,ECHSS; 300 gai/ha,37%
same,Visual Weed Control (%) - 55-58 DAA SCPMU Obs,SCPMU; 300 gai/ha,6%
